We go through twelve compounds from patent US6265433A, “LTA4 hydrolase inhibitors” (G. D. Searle & Company, priority 1999, dated 2001).

In assay [1] the test system is LTB4 production in calcium ionophore stimulated human blood. Put plainly: Inhibition of calcium ionophore-induced LTB4 production in human blood (human whole blood assay). It counts as cell-based. The conditions noted are these: human blood diluted 1:4; 15 minutes preincubation at 37° C.; calcium ionophore 20 mcg/ml, 10 minutes. From the text: (§1) One or more of three different assays, (1) an in vitro LTA hydrolase enzyme assay, (2) a human whole blood assay utilizing calcium ionophore stimulation, and (3) a murine ex vivo assay utilizing calcium ionophore stimulation were employed to determine the level of LTA hydrolase inhibitor activity.
LTB4 and Thromboxane Production by Calcium Ionophore Stimulated Human Blood for LTB4 Hydrolase Inhibitor Activity
One or more concentrations of the leukotriene A4 hydrolase inhibitor compounds being tested were prepared (diluted in DMSO) and 2 μl added and gently mixed with the diluted whole blood. After incubating for 15 minutes at 37° C. in a humidified incubator, calcium ionophore […] (Sigma Chemical Co., St. Louis, Mo.) was added to a final concentration of 20 mcg/ml and the incubation continued under the same conditions for an additional 10 minutes to allow LTB4 formation. The reaction was terminated by centrifugation (833 g, 10 minutes at 4° C.) and supernatant were analyzed for LTB4 and thromboxane by commercially available enzyme-linked immunoassays (Caymen Chemical Co., Ann Arbor, Mich.) according to the manufacturer's instructions. The IC50 of each test compound was determined from the amount of inhibition of LTB4 production as compared to an essentially identical assay in which no inhibitor compound was present.

In assay [2] the test system is LTB4 production in calcium ionophore stimulated mouse blood. Put plainly: Murine ex vivo LTB4 inhibition, calcium ionophore stimulated mouse blood after oral gavage. It is filed as in vivo, mouse (adult male outbred mice). The conditions noted are these: 1 h, blood collected 60 minutes after administration, ionophore A23187 20 mcg/ml, read-out: Murine Ex Vivo LTB4 Inhibition, % I LTB4 at 1 hour after administration of 10 mg/kg.
Description: as §1
Ex Vivo LTB4 and Thromboxane Production by Calcium lonophore Stimulated Mouse Blood for […] Inhibitor Activity
Leukotriene A4 hydrolase inhibitor compounds of the present invention were diluted to a predetermined concentration in phosphate buffered saline containing 2% DMSO and 1% Tween 80. The compounds were administered by oral gavage to adult male outbred mice weighing approximately 20-30 gm at a dose of 10 mg/kg body weight. (Compounds given at a dose of 50 mg/kg body weight are designated in following Table by the symbol, *) Sixty (60) minutes after administration of an LTA4 inhibitor compound of the invention, blood was collected (into heparin-containing tubes) from the retroorbital sinus. […] The mixture was incubated for 10 minutes at 37° C. in a humidified incubator. The reaction was terminated by centrifugation (833 g. 10 minutes at 4° C.). Supernatant were analyzed for LTB4 and thromboxane by commercially available enzyme-linked immunoassays [Caymen Chemical Co., Ann Arbor, Mich.] in accordance with the manufacturer's instructions. The percent inhibition was determined by comparison to animals treated identically except that the solution administered by oral gavage was devoid of inhibitor compound.

In assay [3] the test system is LTA4 hydrolase. The settings on record: background statement; cited from earlier work.
In assay [4] the target is T1, Recombinant Human LTA4 Hydrolase (Homo sapiens, UniProt P09960).
T1 construct: made in house; host or cells: Spodoptera frugiperda Sf-9 cells (baculovirus)
T1 sequence (P09960 1-611): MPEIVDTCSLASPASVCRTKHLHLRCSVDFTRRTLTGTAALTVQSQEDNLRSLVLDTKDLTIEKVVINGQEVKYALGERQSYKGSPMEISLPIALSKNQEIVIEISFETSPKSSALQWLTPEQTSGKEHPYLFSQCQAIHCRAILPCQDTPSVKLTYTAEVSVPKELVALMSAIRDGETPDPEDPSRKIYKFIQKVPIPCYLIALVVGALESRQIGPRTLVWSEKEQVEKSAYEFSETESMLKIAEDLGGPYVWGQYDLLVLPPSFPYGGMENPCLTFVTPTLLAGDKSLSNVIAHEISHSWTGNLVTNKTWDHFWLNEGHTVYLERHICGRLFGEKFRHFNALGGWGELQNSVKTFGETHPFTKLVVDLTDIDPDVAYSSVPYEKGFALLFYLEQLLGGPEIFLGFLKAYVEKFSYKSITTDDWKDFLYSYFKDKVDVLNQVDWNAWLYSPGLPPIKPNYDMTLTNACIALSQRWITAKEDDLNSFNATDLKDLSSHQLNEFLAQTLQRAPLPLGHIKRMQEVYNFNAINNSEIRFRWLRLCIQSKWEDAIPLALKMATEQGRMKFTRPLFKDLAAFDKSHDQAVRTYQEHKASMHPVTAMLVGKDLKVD
Put plainly: Recombinant Human LTA Hydrolase Assay (in vitro LTA hydrolase enzyme assay). It counts as biochemical. The settings on record: 250 ng rhLTA4 hydrolase; 10 minutes preincubation and 10 minutes reaction at room temperature; pH 7.4. Here is the method: as §1
Recombinant Human LTA Hydrolase Assay for LTA Hydrolase Inhibitor Activity
Compounds of the present invention were tested for LTA hydrolase inhibitor activity against recombinant human LTA hydrolase (rhLTAH). […] Briefly, LTA hydrolase encoding DNA was amplified by polymerase chain reaction using a pair of oligonucleotide primers based on the nucleotide sequence from the 5'-end, and the complement of the 3'-end, of the coding region of the LTA hydrolase gene, the nucleotide sequence of which gene is known. […] A λgt11 human placental cDNA library (Clonetech, Palo Alto, Calif.) provided the nucleic acid template.
One or more predetermined amounts of a compound of the invention were incubated in assay buffer (0.1 M potassium phosphate, 5 mg/ml fatty acid free BSA, 10% DMSO, Ph 7.4) for 10 minutes at room temperature with 250 ng of recombinant hLTA4 H to allow binding, if any, between the enzyme and inhibitor. The stock enzyme solution was 1 mg/m. LTA4 hydrolase, 50 Mm Tris, Ph 8.0, 150 Mm NaCl, 2.5 Mm beta-mercaptoethanol, 50% glycerol. The specific activity of the enzyme was about 650 Nmoles/min/mg. LTA4 (i.e., substrate) was prepared from the methyl ester of LTA4 (Biomol, Inc., Plymouth Meeting, Pa.) by treating the methyl ester with 30 molar equivalents of LiOH at room temperature for 18 hours. The LTA4 substrate in its free acid form was kept frozen at -80° C. until needed. LTA4 (free acid) was thawed and diluted in assay buffer (minus DMSO) to a concentration of 350 ng/ml and 25 μl (8ng) of LTA4 substrate was added to the reaction mixture (total volume of reaction mixture=200 μl at time zero. Each reaction was carried out at room temperature for 10 minutes. The reaction was stopped by diluting 25 μl of the reaction mixture with 500 μl of the assay buffer without DMSO. […] was quantified in the diluted sample by a commercially available enzyme-linked immunoassay [Caymen Chemical Col. Ann Arbor, Mich.] using the method recommended in the manufacturer's instructions and compared to the amount of […] produced in a negative control (i.e., essentially identical conditions except without addition of an inhibitor compound). The IC50 was routinely calculated from the data produced.

pIC50: −log10 of the molar value.

A word on the pIC50: it is the IC50 on a negative log10 scale, so that one unit is a factor of ten.

With `O=C(O)C1CCN(CCOc2ccc(Oc3ccc(-c4ccccc4)cc3)cc2)CC1` [Example 12], the pIC50 in assay [1] is 6.66. Further, the inhibition at 10 mg/kg in assay [2] was 87%.

With `C[C@H](CS)C(=O)N1CCC[C@H]1C(=O)O` [captopril], in assay [3], the “LTA4 hydrolase inhibitory activity” value is recorded as “exhibit LTA4 hydrolase inhibitory activity”.

In the case of `CN(CCCOc1ccc(Oc2ccc(-c3nccs3)cc2)cc1)CCC(=O)O` [Example 17], the pIC50 in assay [1] was 7.14; in assay [4] it was 6.02. Moreover, in assay [2], the inhibition at 10 mg/kg worked out at 87%.

With `c1ccc(-c2ccc(Oc3ccc(OCCN4CCCC4)cc3)cc2)cc1` [Example 8], the pIC50 is 6.85 in assay [1] and 8.18 in assay [4]. Also, in assay [2], the inhibition at 10 mg/kg amounted to 57%.

Consider `CN(CCCOc1ccc(Oc2ccc(-c3ncco3)cc2)cc1)CCC(=O)O` [Example 18], for which the figures for the pIC50 in assay [1] and in assay [4] were 6.72 and 7.57, respectively. The inhibition at 10 mg/kg in assay [2] was determined as 94%.

`CC(C)C[C@H](NC(=O)[C@@H](O)[C@H](N)Cc1ccccc1)C(=O)O` [bestatin]: the “LTA4 hydrolase inhibitory activity” value in assay [3] is given as “exhibit LTA4 hydrolase inhibitory activity”.

For the compound `CN(CCCOc1ccc(Oc2ccc(-c3ccccc3)cc2)cc1)CCC(=O)O` [Example 14], the pIC50 in assay [1] was 6.72. In assay [2], the inhibition at 10 mg/kg amounted to 78%.

Take `CCN(CCCOc1ccc(Oc2ccc(-c3ncco3)cc2)cc1)CCC(=O)O` [Example 19]: the figures for the negative logarithm of the IC50 (pIC50) in assay [1] and in assay [4] were 6.62 and 6.47, respectively. The inhibition at 10 mg/kg in assay [2] turned out to be 93%.

Take `COC(=O)CCN(C)CCCOc1ccc(Oc2ccc(-c3ccccc3)cc2)cc1` [Example 13]: the pIC50 in assay [1] was 6.10; in assay [4], 6.26. The inhibition at 10 mg/kg in assay [2] amounted to 63%.

For `c1cc(Oc2ccc(C3=NCCO3)cc2)ccc1OCCN1CCCC1` [Example 10], the pIC50 in assay [1] was 6.26; in assay [4], 6.23. Further, in assay [2], the inhibition at 10 mg/kg was determined as 83%.

On to `c1coc(-c2ccc(Oc3ccc(OCCN4CCCC4)cc3)cc2)n1` [Example 7], for which, in assay [1], the pIC50 is 6.26. Moreover, in assay [2], the inhibition at 10 mg/kg turned out to be 93%.

As for `CCOC(=O)C1CCN(CCOc2ccc(Oc3ccc(-c4ccccc4)cc3)cc2)CC1` [Example 11], the results for the pIC50 in assay [1] and in assay [4] were 6.14 and 6.47, respectively. For the same compound, in assay [2], the inhibition at 10 mg/kg worked out at 90%.
